Experimental data as given in a melting point compilation (Tetko et al.; mined from patent text by program, amines drawn as free bases though some values may be those of a salt).

Point of comparison: `CCC(Nc1ccccc1C(=O)O)c1nccnc1OCc1ccccc1` (stereo unspecified), melting point 142 °C. Against it:
- CCOC(=O)C(C)(OC)C(=O)Nc1cc(Cl)cc(Cl)c1 (stereo unspecified) — lower, 72 to 75 °C
- COc1ccc(Nc2ccncc2)cc1 — lower, 129 to 134 °C
- CCCCc1ccc(CC(N)C(=O)O)cc1 (stereo unspecified) — higher, 218 to 223 °C
- CC(C)NS(=O)(=O)NC(C)C — lower, 98 to 101 °C
- CC(=O)Oc1c(C(C)(C)C)cc(C=O)cc1C(C)(C)C — lower, 65.2 to 74.5 °C
- CC1(C)Oc2c(ccc3oc(C(=O)O)cc(=O)c23)-c2cc(Cl)ccc21 — higher, 262 to 264 °C
- CCCc1c(OCc2ccccc2)ccc2c(C)c(C(=O)c3ccc(OC)cc3)oc12 — lower, 105 to 106 °C
- COc1ccc(S(=O)(=O)NCc2ccc(-n3c(-c4cccnc4N)nc4cc(Br)cnc43)cc2)cc1 — higher, 188 to 190 °C
- CCCCNC(=O)n1c(=NC(F)(F)F)oc2ccc([N+](=O)[O-])cc21 — lower, 121 to 122 °C
- CSC1=Nc2ccccc2Sc2nccn21 — lower, 116 to 118 °C
- CC1(c2ccccc2)SC(=S)N(Nc2ccccc2)C1=NO (stereo unspecified) — lower, 83 to 84 °C
- CC1(O)CC(C)(C)c2ccc(Oc3ccc([N+](=O)[O-])cc3)cc2O1 (stereo unspecified) — higher, 159 to 160 °C
- CN(C)C(=O)c1cc2n(n1)-c1ccc(Cl)cc1C(c1ccccc1)=NC2 — higher, 176 to 178 °C
- c1ccc(-c2cn3cccnc3n2)cc1 — higher, 200 to 202 °C
- Cc1cccc(NC(=O)NC2N=C(C3CCCCC3)c3ccccc3N(Cc3ccccn3)C2=O)c1 (stereo unspecified) — higher, 157 to 163 °C
- CC(C)(Cc1ccccc1)C(NC(=O)c1cccnc1)Nc1c(Nc2cccnc2)c(=O)c1=O (stereo unspecified) — higher, 220 to 222 °C
- CCOC(=O)c1c[nH]c2c(F)c(C)c(F)cc2c1=O — higher, 260 to 263 °C
- CC(C)NCC(O)COc1ccc2c(c1)CCN(C=O)C2 (stereo unspecified) — lower, 56.6 to 58 °C
- N=C(Nc1ccc2c(c1)C1CCCN1CC2)c1cccs1 (stereo unspecified) — higher, 193 to 196 °C
- COc1nc(OC)c(C=CC(C)=O)c(OC)n1 — lower, 98 to 99 °C
- O=C1OC(=O)c2cc3c(ccc4ccccc43)cc21 — higher, 278 °C
- Nc1c2c(nc3cccc(Cl)c13)C(=O)CCC2 — higher, 205 °C
- CC(=O)Oc1cc(S(=O)(=O)c2ccccc2)ccc1OCc1ccccc1 — lower, 107 to 111 °C
- N#Cc1cccc(C2=Nc3ccc(C#Cc4ccc(OC(F)(F)F)cc4)cc3NC(=O)C2)c1 — higher, 239 to 241 °C
- Nc1sc2c(c1C(=O)c1cccc3ccccc13)CCN(Cc1ccccc1)C2 — higher, 178 to 180 °C
- CN1CCC(CCCOc2cc3ncnc(Nc4cccc(Br)c4)c3cc2N)CC1 — higher, 191 to 198 °C
- NC(=O)Cc1nnc(S)o1 — higher, 160 to 163 °C
- O=S1(=O)NCN(C2CC2)c2cc(F)c(Cl)cc21 — higher, 155 to 158 °C
- Cc1c(CC(=O)N(C)O)c2cc(OCc3nc4ccccc4s3)ccc2n1Cc1ccc(Cl)cc1 — higher, 174 to 175 °C
- N#CN=[N+]([O-])c1ccc2c(c1)OCO2 — higher, 145 to 147 °C
- CC(C)c1nc(-c2ccccc2)c(-c2ccccc2)c(-c2ccc(F)cc2)c1CO — higher, 169 to 171 °C
- Nc1nc(N)nc(-c2ccc(C#Cc3ccccc3)cc2)n1 — higher, 248 to 249 °C
- CCC(CC)c1ccc(C=O)c2nc(Oc3c(C)cc(Cl)cc3Cl)n(C)c12 — higher, 148 to 149 °C
- NS(=O)(=O)c1cccc(NC(=O)c2cnn3c(C(F)F)cc(-c4ccc(C(F)(F)F)c(Cl)c4)nc23)c1 — higher, 272 °C
- CCN1CCc2cc(Nc3ncc(Cl)c(Nc4ccccc4C(=O)NC)n3)c(OC)c(N)c2CC1 — not separable, 117 to 160 °C
- COC(=O)COc1ccc(C(=O)CBr)c2ccccc12 — lower, 99 to 101 °C
- CCCCOc1c(CNC(=O)OC(C)(C)C)n(CC(C)C)c(=O)c2ccc(-c3nc(C)c(C(N)=O)s3)cc12 — higher, 234 °C
- O=C(NO)c1ccccc1Nc1c(Cl)cccc1Cl — higher, 171 to 173 °C
- O=C1CCCNC12CCCCC2 — lower, 55 °C
- Cn1c(CO)nc2c(N)cc(Br)cc21 — higher, 216 to 218 °C
- O=C1NCCN1c1ccc(S(=O)(=O)Nc2ccc(C3CCCCC3)cc2)cc1 — higher, 256 to 257 °C
- COc1cc(Cc2cnc(N)nc2N)cc(-c2ccc(CO)cc2)c1OC — lower, 86 °C
- CCOC(=O)c1cnc2c3cc(NC(=O)CC(C)(C)C)ccc3ncn2c1=O — higher, 253 to 254 °C
- CCCCCS(=O)(=O)NC(=O)CCc1ccc(OCCOC)cc1OCc1nc(-c2ccccc2)oc1C — lower, 95.9 to 96.7 °C
- Cc1cc(C(F)(F)F)nn1CC(=O)N1CCC(c2nc(NC(=O)Nc3ccccc3)cs2)CC1 — higher, 193 °C
- CCC(=O)N1CCNC1=NC#N — higher, 208 to 210 °C
- CNC(=O)C(C#N)C(=O)Nc1ccc(C(F)(F)F)cc1 (stereo unspecified) — higher, 184 to 186 °C
- COC(=O)c1ccncc1SCc1ccccc1 — lower, 80 °C
- Cc1c(NC(=O)c2ccc(OC[C@@H]3CCCO3)cc2)ccc2[nH]c(CNCC3CCOCC3)cc12 — higher, 166 to 167 °C
- CCCCCOc1ccc(C(=O)OC(C)C(C)OC(=O)c2ccc(OCCCCC)cc2)cc1 (stereo unspecified) — lower, 52 °C
